Values of other authors as cited in US11773445B1, “Diagnostic methods” (GRIFFITH UNIVERSITY, priority 2015, dated 2023).

Details: CFS patients; multiple Rituximab infusions

For “Rituximab: drug given as multiple infusions to CFS patients in a cited study; anti-CD20 intervention”, the patients responded is listed as 15 of 25.
